Source: ChEMBL document CHEMBL1150330, “Muscarinic antagonists with multiple stereocenters: Synthesis, affinity profile and functional activity of isomeric 1-methyl-2-(2,2-alkylaryl-1,3-oxathiolan-5-yl)pyrrolidine sulfoxide derivatives” (Bioorg Med Chem, 2008)

Columns and labels:
[1] = Antagonist activity against muscarinic M3 receptor in guinea pig ileum assessed as effect on ileum tension; type: functional, Cavia porcellus
[2] = biological target: T1, Muscarinic acetylcholine receptor M1 (Homo sapiens, UniProt P11229); assay: Displacement of [3H]NMS from human muscarinic M1 receptor expressed in CHO cells; type: cell-based
T1 sequence (P11229 whole entry): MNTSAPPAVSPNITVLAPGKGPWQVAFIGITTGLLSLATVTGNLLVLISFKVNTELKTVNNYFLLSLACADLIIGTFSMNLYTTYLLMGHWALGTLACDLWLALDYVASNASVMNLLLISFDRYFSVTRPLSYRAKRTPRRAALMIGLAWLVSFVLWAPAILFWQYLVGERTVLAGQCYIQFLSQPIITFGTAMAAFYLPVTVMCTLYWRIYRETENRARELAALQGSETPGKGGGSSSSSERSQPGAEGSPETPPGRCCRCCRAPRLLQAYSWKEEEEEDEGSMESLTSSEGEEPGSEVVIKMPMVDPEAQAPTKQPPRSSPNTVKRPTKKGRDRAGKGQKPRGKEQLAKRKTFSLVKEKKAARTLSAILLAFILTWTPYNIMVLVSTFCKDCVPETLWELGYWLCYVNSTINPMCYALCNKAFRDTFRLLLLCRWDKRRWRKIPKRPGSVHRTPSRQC

[3] = biological target: T2, Muscarinic acetylcholine receptor M2 (Homo sapiens, UniProt P08172); assay: Displacement of [3H]NMS from human muscarinic M2 receptor expressed in CHO cells; type: cell-based
T2 sequence (P08172 whole entry): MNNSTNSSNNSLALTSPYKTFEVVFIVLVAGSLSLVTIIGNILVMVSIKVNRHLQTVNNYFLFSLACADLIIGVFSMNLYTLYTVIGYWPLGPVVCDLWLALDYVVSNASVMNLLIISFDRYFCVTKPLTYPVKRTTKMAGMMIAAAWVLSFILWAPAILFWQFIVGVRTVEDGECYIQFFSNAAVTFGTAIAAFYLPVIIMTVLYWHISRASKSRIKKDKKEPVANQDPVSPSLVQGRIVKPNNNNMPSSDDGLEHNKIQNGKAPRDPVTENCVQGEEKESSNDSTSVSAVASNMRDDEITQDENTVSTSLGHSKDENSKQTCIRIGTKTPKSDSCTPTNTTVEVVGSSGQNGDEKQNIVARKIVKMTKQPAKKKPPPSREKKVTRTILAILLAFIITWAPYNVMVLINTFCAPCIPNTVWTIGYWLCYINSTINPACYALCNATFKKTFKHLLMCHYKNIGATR

[4] = biological target: T3, Muscarinic acetylcholine receptor M5 (Homo sapiens, UniProt P08912); assay: Displacement of [3H]NMS from human muscarinic M5 receptor expressed in CHO cells; type: cell-based
T3 sequence (P08912 whole entry): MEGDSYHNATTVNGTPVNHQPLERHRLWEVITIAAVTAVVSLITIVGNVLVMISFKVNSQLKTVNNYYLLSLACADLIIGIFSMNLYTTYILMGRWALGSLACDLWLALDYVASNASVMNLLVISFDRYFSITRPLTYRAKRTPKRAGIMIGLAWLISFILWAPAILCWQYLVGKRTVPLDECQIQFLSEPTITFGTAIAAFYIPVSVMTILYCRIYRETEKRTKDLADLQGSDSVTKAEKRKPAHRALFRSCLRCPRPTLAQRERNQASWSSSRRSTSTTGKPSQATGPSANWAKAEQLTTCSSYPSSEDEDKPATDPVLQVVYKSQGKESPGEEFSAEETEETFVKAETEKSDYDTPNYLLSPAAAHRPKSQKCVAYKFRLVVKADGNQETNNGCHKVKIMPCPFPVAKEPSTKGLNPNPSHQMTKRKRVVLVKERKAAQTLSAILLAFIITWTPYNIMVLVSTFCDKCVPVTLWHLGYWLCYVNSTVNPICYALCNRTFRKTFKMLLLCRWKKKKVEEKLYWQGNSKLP

[5] = biological target: T4, Muscarinic acetylcholine receptor M4 (Homo sapiens, UniProt P08173); assay: Displacement of [3H]NMS from human muscarinic M4 receptor expressed in CHO cells; type: cell-based
T4 sequence (P08173 whole entry): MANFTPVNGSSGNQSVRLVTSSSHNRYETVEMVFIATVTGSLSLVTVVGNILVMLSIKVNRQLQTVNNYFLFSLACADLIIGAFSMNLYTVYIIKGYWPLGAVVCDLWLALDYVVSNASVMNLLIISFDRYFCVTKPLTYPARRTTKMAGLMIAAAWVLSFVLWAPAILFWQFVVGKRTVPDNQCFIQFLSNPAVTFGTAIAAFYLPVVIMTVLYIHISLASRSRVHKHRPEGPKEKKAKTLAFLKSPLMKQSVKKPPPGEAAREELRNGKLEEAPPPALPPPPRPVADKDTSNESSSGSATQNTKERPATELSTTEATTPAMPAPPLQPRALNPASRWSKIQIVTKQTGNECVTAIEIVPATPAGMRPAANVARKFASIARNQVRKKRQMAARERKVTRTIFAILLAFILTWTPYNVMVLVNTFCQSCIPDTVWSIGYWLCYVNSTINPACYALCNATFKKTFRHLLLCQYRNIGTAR

[6] = Antagonist activity against muscarinic M4 receptor in guinea pig lung strip assessed as effect on electrically-stimulated contraction; type: functional, Cavia porcellus
[7] = biological target: Muscarinic acetylcholine receptor M3 (Homo sapiens, UniProt P20309); assay: Displacement of [3H]NMS from human muscarinic M3 receptor expressed in CHO cells; type: cell-based
[8] = Antagonist activity against muscarinic M2 receptor in guinea pig atria assessed as effect on electrically-stimulated atria; type: functional, Cavia porcellus

Sequence of Muscarinic acetylcholine receptor M3 (P20309 whole entry): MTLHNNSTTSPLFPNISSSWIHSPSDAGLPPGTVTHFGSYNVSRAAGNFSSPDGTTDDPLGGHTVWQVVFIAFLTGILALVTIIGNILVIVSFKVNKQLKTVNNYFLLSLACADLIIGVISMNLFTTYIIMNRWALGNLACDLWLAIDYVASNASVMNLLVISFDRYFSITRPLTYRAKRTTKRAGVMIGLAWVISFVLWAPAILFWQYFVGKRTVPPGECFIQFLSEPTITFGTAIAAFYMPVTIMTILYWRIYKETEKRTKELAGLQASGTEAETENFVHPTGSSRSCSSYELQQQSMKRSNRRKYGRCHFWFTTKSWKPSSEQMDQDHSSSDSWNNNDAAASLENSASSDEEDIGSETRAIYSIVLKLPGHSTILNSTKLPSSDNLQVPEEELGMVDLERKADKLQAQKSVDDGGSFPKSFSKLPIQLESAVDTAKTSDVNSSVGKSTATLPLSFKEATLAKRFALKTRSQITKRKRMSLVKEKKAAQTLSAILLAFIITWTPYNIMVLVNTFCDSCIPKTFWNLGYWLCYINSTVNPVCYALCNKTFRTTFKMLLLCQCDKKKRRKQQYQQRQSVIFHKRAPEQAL

SMILES | pKb [1] | Ki [2] [µM] | Ki [3] [µM] | Ki [4] [µM] | Ki [5] [µM] | pKb [6] | Ki [7] [µM] | pKb [8]
C[N+](C)(C)C[C@@H]1C[S@](=O)[C@@](c2ccccc2)(C2CCCCC2)O1.[I-] | 7.64 | 0.0219 | 0.0741 | 0.141 | 0.0955 | 5.24 | 0.0347 | 7.52
CN1CCC[C@H]1[C@H]1C[S+]([O-])C(c2ccccc2)(c2ccccc2)O1 (stereo in doubt; (+)-4) | 6.55 | 0.11 | 0.562 | 0.513 | 1.02 | 5.29 | 0.468 | 6
CN1CCC[C@@H]1[C@@H]1C[S+]([O-])C(c2ccccc2)(c2ccccc2)O1 (stereo in doubt; (+)-5) | 7.17 | 0.11 | 0.0398 | 0.339 | 0.316 | 5.63 | 0.282 | 7.1
CN1CCC[C@H]1[C@H]1C[S+]([O-])[C@@](c2ccccc2)(C2CCCCC2)O1 (stereo in doubt; (+)-6) | 6.43 | 0.155 | 1.02 | 0.525 | 0.447 | <5 | 0.389 | 5.48
CN1CCC[C@H]1[C@H]1C[S+]([O-])[C@@](c2ccccc2)(C2CCCCC2)O1 (stereo in doubt; (+)-7) | 7.96 | 0.01 | 0.0646 | 0.0251 | 0.0331 | 5.2 | 0.0182 | 7.56
CN1CCC[C@@H]1[C@@H]1C[S+]([O-])[C@@](c2ccccc2)(C2CCCCC2)O1 (stereo in doubt; (+)-8) | 7.71 | 0.038 | 0.0661 | 0.0302 | 0.0933 | <5 | 0.024 | 7.05
CN1CCC[C@@H]1[C@@H]1C[S+]([O-])[C@@](c2ccccc2)(C2CCCCC2)O1 (stereo in doubt; (+)-9) | 7.59 | 0.107 | 0.038 | 0.288 | 0.257 | 6.16 | 0.2 | 7.72
C[N+]1(C)CCC[C@H]1[C@H]1C[S+]([O-])C(c2ccccc2)(c2ccccc2)O1.[I-] (stereo in doubt; (+)-10) | 6.95 | 0.0295 | 0.141 | 0.0912 | 0.209 | 5.54 | 0.209 | 7.2
C[N+]1(C)CCC[C@@H]1[C@@H]1C[S+]([O-])C(c2ccccc2)(c2ccccc2)O1.[I-] (stereo in doubt; (+)-11) | 7.62 | 0.324 | 0.195 | 0.813 | 1.17 | 5.25 | 0.417 | 7
C[N+]1(C)CCC[C@H]1[C@H]1C[S+]([O-])[C@@](c2ccccc2)(C2CCCCC2)O1.[I-] (stereo in doubt; (+)-12) | 7.03 | 0.012 | 0.0708 | 0.0234 | 0.0589 | 5.41 | 0.0269 | 6.57
C[N+]1(C)CCC[C@H]1[C@H]1C[S+]([O-])[C@@](c2ccccc2)(C2CCCCC2)O1.[I-] (stereo in doubt; (+)-13) | 8.67 | 0.00302 | 0.0178 | 0.00302 | 0.0158 | 6.37 | 0.00417 | 7.81
C[N+]1(C)CCC[C@@H]1[C@@H]1C[S+]([O-])[C@@](c2ccccc2)(C2CCCCC2)O1.[I-] (stereo in doubt; (+)-14) | 9 | 0.00692 | 0.0214 | 0.0141 | 0.0191 | 7.59 | 0.00692 | 7.98
C[N+]1(C)CCC[C@@H]1[C@@H]1C[S+]([O-])[C@@](c2ccccc2)(C2CCCCC2)O1.[I-] (stereo in doubt; (+)-15) | 7.1 | 0.0933 | 0.0776 | 0.224 | 0.302 | 6.48 | 0.162 | 6.97
CN1CCC[C@@H]1[C@@H]1C[S+]([O-])C(c2ccccc2)(c2ccccc2)O1 (stereo in doubt; (-)-4) | 6.95 | 0.0741 | 0.229 | 0.355 | 0.513 | 5.75 | 0.513 | 7.27
CN1CCC[C@H]1[C@H]1C[S+]([O-])C(c2ccccc2)(c2ccccc2)O1 (stereo in doubt; (-)-5) | 6.99 | 0.145 | 0.219 | 0.229 | 0.407 | <5 | 0.302 | 6.42
CN1CCC[C@@H]1[C@@H]1C[S+]([O-])[C@](c2ccccc2)(C2CCCCC2)O1 (stereo in doubt; (-)-6) | 7.39 | 0.0794 | 0.107 | 0.275 | 0.355 | 7.24 | 0.195 | 7.34
CN1CCC[C@@H]1[C@@H]1C[S+]([O-])[C@](c2ccccc2)(C2CCCCC2)O1 (stereo in doubt; (-)-7) | 8.71 | 0.0141 | 0.00417 | 0.0589 | 0.0427 | 6.92 | 0.0427 | 9.37
CN1CCC[C@H]1[C@H]1C[S+]([O-])[C@](c2ccccc2)(C2CCCCC2)O1 (stereo in doubt; (-)-8) | 5.95 | 0.537 | 1.45 | 0.759 | 1.51 | 5.19 | 0.692 | 5.71
CN1CCC[C@H]1[C@H]1C[S+]([O-])[C@](c2ccccc2)(C2CCCCC2)O1 (stereo in doubt; (-)-9) | 7.1 | 0.0933 | 0.302 | 0.38 | 0.501 | 5.13 | 0.347 | 6.59
C[N+]1(C)CCC[C@@H]1[C@@H]1C[S+]([O-])C(c2ccccc2)(c2ccccc2)O1.[I-] (stereo in doubt; (-)-10) | 7.5 | 0.0537 | 0.0692 | 0.182 | 0.282 | 6.53 | 0.263 | 7.3
